In patent US20070249710A1, “Biaromatic compounds and cosmetic/pharmaceutical applications thereof” (GALDERMA RESEARCH & DEVELOPMENT, priority 2004, published 2007):
Values belong to the molecule of their own block, whether it stands above or below them.

How the values were obtained:
[1] = target: T1, RARbeta (Homo sapiens, UniProt P10826); experiment: Transactivation test, HeLa reporter cells (RARbeta); type: cell-based
T1 sequence (P10826 183-417 limits assumed): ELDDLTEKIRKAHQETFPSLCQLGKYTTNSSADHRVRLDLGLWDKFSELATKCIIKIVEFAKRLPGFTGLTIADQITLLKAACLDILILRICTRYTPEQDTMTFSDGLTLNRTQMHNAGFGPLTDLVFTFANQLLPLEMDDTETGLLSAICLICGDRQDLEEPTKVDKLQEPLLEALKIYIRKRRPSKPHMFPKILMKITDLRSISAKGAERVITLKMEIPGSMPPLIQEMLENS
Method: (§1) The activation of the receptors by an agonist (activator) in HeLa cells results in the expression of a reporter gene, luciferase, which, in the presence of a substrate, generates light. It is therefore possible to measure the activation of the receptors by quantifying the luminescence produced after incubation of the cells in the presence of a reference antagonist. The activator products displace the antagonist from its site, thus allowing activation of the receptor. The measurement of the activity is carried out by quantifying the increase in the light produced. This measurement makes it possible to determine the activating activity of the compound for use in the invention.
(§2) In this study, a constant which is the affinity of the molecule for the receptor is determined. Since this value can fluctuate depending on the basal activity and the expression of the receptor, it is designated apparent Kd (KdApp). […]
(§3) These cross curves make it possible to determine the AC50 values (concentration at which 50% activation is observed) for the reference ligand at various concentrations of product to be tested. These AC50 values are used to calculate the Schild regression by plotting a straight line corresponding to the Schild equation (“quantitation in receptor pharmacology”, Terry P. Kenakin, Receptors and Channels, 2001, 7, 371-385).
(§4) In the case of an agonist, the AC50 value (concentration that gives 50% of the activity) is calculated by plotting the curve of the product at the concentration of the reference ligand that gives 80% activation. The percentage activation which corresponds to the maximum level of activity obtained is also measured. […]
(§5) The culture medium is removed by turning the plates upside down and 100 μl of a 1:1 PBS (phosphate buffer solution)/luciferin mixture are added to each well. After 5 minutes, the plates are read with a luminescence reader.

[2] = target: T2, RARalpha (Homo sapiens, UniProt P10276); experiment: Transactivation test, HeLa reporter cells (RARalpha); type: cell-based
T2 sequence (P10276 183-417 limits assumed): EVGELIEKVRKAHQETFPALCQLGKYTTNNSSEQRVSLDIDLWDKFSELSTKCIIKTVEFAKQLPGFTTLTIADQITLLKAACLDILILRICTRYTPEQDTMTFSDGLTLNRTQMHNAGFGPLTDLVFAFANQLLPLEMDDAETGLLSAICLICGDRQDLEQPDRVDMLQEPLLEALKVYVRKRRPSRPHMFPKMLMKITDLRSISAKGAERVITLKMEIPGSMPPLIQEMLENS
Method: as §1, §2, §3, §4, §5

[3] = target: T3, RARgamma (Homo sapiens, UniProt P13631); experiment: Transactivation test, HeLa reporter cells (RARgamma); type: cell-based; settings: for specificity for RARgamma in comparison with RARalpha and RARbeta: transactivation test, in words
T3 sequence (P13631 185-419 limits assumed): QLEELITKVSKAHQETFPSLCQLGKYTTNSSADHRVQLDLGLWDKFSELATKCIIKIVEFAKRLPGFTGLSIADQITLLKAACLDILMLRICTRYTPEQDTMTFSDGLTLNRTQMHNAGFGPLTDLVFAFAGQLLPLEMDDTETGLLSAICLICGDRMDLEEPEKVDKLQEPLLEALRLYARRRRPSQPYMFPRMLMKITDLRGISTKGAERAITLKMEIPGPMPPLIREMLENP
Method: as §1
In this study, a constant which is the affinity of the molecule for the receptor is determined. Since this value can fluctuate depending on the basal activity and the expression of the receptor, it is designated apparent Kd (KdApp).
To determine this constant, “cross curves” for the product to be tested (2-hydroxy-4-[2-hydroxyimino-2-(5,5,8,8-tetramethyl-5,6,7,8-tetrahydronaphthalen-2-yl)ethoxy]benzoic acid), against a reference antagonist, otherwise called reference ligand, 4-(5,5-dimethyl-8-p-tolyl-5,6-dihydronaphthalen-2-ylethynyl)benzoic acid, are produced. The product to be tested is used at 10 concentrations and the reference antagonist at 7 concentrations. In each well (of a 96-well plate), the cells are in contact with one concentration of the product to be tested and one concentration of the reference antagonist.
Measurements are also carried out for the total agonist control, otherwise called 100% control (4-[2-(5,5,8,8-tetramethyl-5,6,7,8-tetrahydronaphthalen-2-yl)propenyl]benzoic acid), and the inverse agonist control, otherwise called 0% control, 4-{(E)-3-[4-(4-tert-butylphenyl)-5,5,8,8-tetramethyl-5,6,7,8-tetrahydronaphthalen-2-yl]-3-oxopropenyl}benzoic acid.
as §3
In the case of an agonist, the AC50 value (concentration that gives 50% of the activity) is calculated by plotting the curve of the product at the concentration of the reference ligand that gives 80% activation. The percentage activation which corresponds to the maximum level of activity obtained is also measured.
The HeLa cell lines used are stable transfectants containing the plasmids ERE-βGlob-Luc-SV-Neo (reporter gene) and RAR (α, β, γ) ER-DBD-puro. These cells are seeded into 96-well plates at a rate of 10,000 cells per well in 100 μl of DMEM medium without phenol red, supplemented with 10% of delipidized calf serum. The plates are then incubated at 37° C., 7% CO2 for 4 hours. […]
as §5

[4] = concentration that gives 50% of the activity, HeLa luciferase reporter

- melting point: 130 °C
Structure (SMILES): CCOC(=O)c1ccc(OCC(=NO)c2ccc3c(c2)C(C)(C)CCC3(C)C)cc1O [Example 1, ethyl 2-hydroxy-4-[2-hydroxyimino-2-(5,5,8,8-tetramethyl-5,6,7,8-tetrahydronaphthalen-2-yl)ethoxy]benzoate]

- melting point: 96 °C
Structure (SMILES): CC(C)COC(=O)c1ccc(OCC(=NO)c2ccc3c(c2)C(C)(C)CCC3(C)C)cc1O [Example 3, isobutyl 2-hydroxy-4-[2-hydroxyimino-2-(5,5,8,8-tetramethyl-5,6,7,8-tetrahydronaphthalen-2-yl)ethoxy]benzoate]

- Kd ([1]; apparent Kd, Schild regression against reference antagonist, HeLa luciferase reporter, read-out: RARbeta Kdapp): 1030 nM
- RARbeta % Activation ([1]; at 5 μM, maximum level of activity): 100%
- AC50 [1, 4]: 600 nM
- Kd ([2]; apparent Kd, Schild regression against reference antagonist, HeLa luciferase reporter, read-out: RARalpha Kdapp): 4060 nM
- RARalpha % activation ([2]; at 10 μM, maximum level of activity): 100%
- AC50 [2, 4]: 1700 nM
- Kd ([3]; apparent Kd, Schild regression against reference antagonist, HeLa luciferase reporter, read-out: RARgamma Kdapp): 8 nM
- RARgamma % activation ([3]; at 0.04 μM, maximum level of activity): 100%
- AC50 [3, 4]: 9 nM
Structure (SMILES): CC1(C)CCC(C)(C)c2cc(C(COc3ccc(C(=O)O)c(O)c3)=NO)ccc21 [Acid compound of the invention, 2-hydroxy-4-[2-hydroxyimino-2-(5,5,8,8-tetramethyl-5,6,7,8-tetrahydronaphthalen-2-yl)ethoxy]benzoic acid]
- specificity for RARgamma in comparison with RARalpha and RARbeta ([3]; listed as 2-Hydroxy-4-[2-hydroxyimino-2-(5,5,8,8-tetramethyl-5,6,7,8-tetrahydronaphthalen-): selective agonist or activator of the RARgamma receptor
- specificity for RARgamma in comparison with RARalpha and RARbeta ([3]; listed as 2-hydroxy-4-[2-hydroxyimino-2-(5,5,8,8-tetramethyl-5,6,7,8-tetrahydronaphthalen-): great specificity for the receptor subtype RARgamma

- melting point: 130 °C
Structure (SMILES): CC(C)OC(=O)c1ccc(OCC(=NO)c2ccc3c(c2)C(C)(C)CCC3(C)C)cc1O [Example 2, isopropyl 2-hydroxy-4-[2-hydroxyimino-2-(5,5,8,8-tetramethyl-5,6,7,8-tetrahydronaphthalen-2-yl)ethoxy]benzoate]
